Assay results from PMC3076311 (Nature structural & molecular biology, 2011).

Molecular target: TcdB CPD E753R R745E (Clostridioides difficile, UniProt P18177, E753R/R745E)
Type: biochemical, Clostridium difficile

**Q.** How did the “factor by which activity is decreased relative to wildtype TcdB CPD” value turn out when inositol hexakisphosphate [InsP6] was run?
**A.** 23
